Literature values, collected in patent US8648203B2 (priority 2005, dated 2014).

Tested on: benzimidazole and/or dicarboximide resistant strains of B. cinerea

Structure (SMILES): O=[N+]([O-])c1cc(C(F)(F)F)c(Cl)c([N+](=O)[O-])c1Nc1ncc(C(F)(F)F)cc1Cl [fluazinam, 3-chloro-N-(3-chloro-5-trifluoromethyl-2-pyridyl)-α,α,α-trifluoro-2,6-dinitro-p-toluidine]
- activity against resistant strains of B. cinerea: good activity
